Measured values reported in the supplement of paper PMC11061612.

How the values were obtained:
Experiment in all cases: Bliss excess, mean over the matrix (fraction); higher = more synergy
[1] = system: COLO-680N (Esophageal Squamous Cell Carcinoma)
Summary of the method: (§1)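 Cell lines grown in DMEM/F12 or RPMI with 10% FBS were plated in 1536-well plates and held 24 hours at 37°C, 5% CO2 before 72 hours of exposure to two-drug dose matrices, with DMSO typically at 0.2%. CellTiter-Glo 2.0 luminescence gave viability, which was converted to inhibition. Vehicle wells were set to 0 and blank wells to 1. Combination Emax is the second-highest inhibition in the matrix, and Bliss excess is the observed combination effect minus the expected EA + EB − EA·EB, where EA and EB are the single-agent effects.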

[2] = system: FADU (Head and Neck Carcinoma)
Summary of the method: as §1

[3] = system: HCT-15 (Colorectal Carcinoma)
Summary of the method: as §1

[4] = system: HEC-1 (Endometrial Carcinoma)
Summary of the method: as §1

IST-MES1 (Mesothelioma) = system: IST-MES1 (Mesothelioma)
Summary of the method: as §1

LN-229 (Glioblastoma) = system: LN-229 (Glioblastoma)
Summary of the method: as §1

[5] = system: MFE-280 (Endometrial Carcinoma)
Summary of the method: as §1

[6] = system: MKN45 (Gastric Carcinoma)
Summary of the method: as §1

[7] = system: NCI-H23 (Lung Adenocarcinoma)
Summary of the method: as §1

[8] = system: NCI-H2342 (Lung Adenocarcinoma)
Summary of the method: as §1

[9] = system: NCI-H446 (Small Cell Lung Carcinoma)
Summary of the method: as §1

[10] = system: OAW-42 (Ovarian Carcinoma)
Summary of the method: as §1

[11] = system: OPM-2 (Plasma Cell Myeloma)
Summary of the method: as §1

[12] = system: OVMIU (Ovarian Carcinoma)
Summary of the method: as §1

[13] = system: PANC-03-27 (Pancreatic Carcinoma)
Summary of the method: as §1

[14] = system: PC-3_[JPC-3] (Lung Adenocarcinoma)
Summary of the method: as §1

[15] = system: RCM-1 (Colorectal Carcinoma)
Summary of the method: as §1

[16] = system: RERF-GC-1B (Gastric Carcinoma)
Summary of the method: as §1

[17] = system: SHP-77 (Small Cell Lung Carcinoma)
Summary of the method: as §1

[18] = system: SK-PN-DW (Other Solid Carcinomas)
Summary of the method: as §1

Compound `Cc1c2c(nn1C)CSCc1cc(n(C)n1)CSc1cc(c3ccccc3c1)OCCCc1c(C(=O)O)n(C)c3c-2c(Cl)ccc13` [AZD5991] + C=CCn1c(=O)c2cnc(Nc3ccc(N4CCN(C)CC4)cc3)nc2n1-c1cccc(C(C)(C)O)n1 [AZD1775] (first compound max 1 µM, partner max 1 µM) has a Bliss excess [1] of 0.0254, a Bliss excess [2] of -0.0016 and a Bliss excess [3] of -0.0306. It also gave a Bliss excess [4] of 0.0192, a Bliss excess (IST-MES1 (Mesothelioma)) of 0.0383 and a Bliss excess (LN-229 (Glioblastoma)) of 0.0754. The Bliss excess [5] was 0.0045, the Bliss excess [6] was -0.0456 and the Bliss excess [7] was -0.0174. For the same compound, the Bliss excess [8] was -0.0144, the Bliss excess [9] was -0.0162 and the Bliss excess [10] was 0.0001. It also gave a Bliss excess [11] of -0.0119, a Bliss excess [12] of 0.0145 and a Bliss excess [13] of 0.0186. For the same compound, the Bliss excess [14] was 0.005, the Bliss excess [15] was -0.0271 and the Bliss excess [16] was 0.0041. The Bliss excess [17] was -0.0378 and the Bliss excess [18] was -0.0212.

Compound `CN(CCO)CC[C@H](CSc1ccccc1)Nc1ccc(S(=O)(=O)NC(=O)c2ccc(N3CCC([C@@H](O)c4ccccc4-c4ccc(Cl)cc4)CC3)cc2)cc1S(=O)(=O)C(F)(F)F` [AZD4320] + CCN(CCO)CCCOc1ccc2c(Nc3cc(CC(=O)Nc4cccc(F)c4)[nH]n3)ncnc2c1 [AZD2811] (first compound max 1 µM, 7x7, partner max 1 µM) has a Bliss excess [1] of -0.0373, a Bliss excess [2] of 0.0014 and a Bliss excess [3] of -0.0189. The Bliss excess [4] was -0.0049, the Bliss excess (IST-MES1 (Mesothelioma)) was -0.0265 and the Bliss excess (LN-229 (Glioblastoma)) was -0.0074. The Bliss excess [5] was 0.0821, the Bliss excess [6] was -0.0438 and the Bliss excess [7] was 0.0244. It also gave a Bliss excess [8] of -0.036, a Bliss excess [9] of -0.0505 and a Bliss excess [10] of -0.0359. It also gave a Bliss excess [11] of 0.128, a Bliss excess [12] of -0.0627 and a Bliss excess [13] of 0.0197. The Bliss excess [14] was -0.0598, the Bliss excess [15] was -0.0207 and the Bliss excess [16] was -0.0034. For the same compound, the Bliss excess [17] was -0.0019 and the Bliss excess [18] was 0.0024.

With `Cc1c2c(nn1C)CSCc1cc(n(C)n1)CSc1cc(c3ccccc3c1)OCCCc1c(C(=O)O)n(C)c3c-2c(Cl)ccc13` [AZD5991] + CN(C)CCCOc1ccc(-c2ccc3ncc4c(c3c2)n(C2CCOCC2)c(=O)n4C)cn1 [AZD0156] (first compound max 1 µM, 7x7, partner max 1 µM) the Bliss excess [1] was 0.0049, the Bliss excess [2] was 0.0409 and the Bliss excess [3] was 0.0369. It also gave a Bliss excess [4] of -0.0025, a Bliss excess (IST-MES1 (Mesothelioma)) of 0.0029 and a Bliss excess (LN-229 (Glioblastoma)) of 0.0024. The Bliss excess [5] was -0.0159, the Bliss excess [6] was -0.0594 and the Bliss excess [7] was -0.0201. For the same compound, the Bliss excess [8] was -0.016, the Bliss excess [9] was 0.052 and the Bliss excess [10] was 0.0454. The Bliss excess [11] was -0.0241, the Bliss excess [12] was -0.0328 and the Bliss excess [13] was -0.0201. The Bliss excess [14] was -0.0156, the Bliss excess [15] was -0.0105 and the Bliss excess [16] was 0.0263. It also gave a Bliss excess [17] of -0.0033 and a Bliss excess [18] of -0.0117.

For `NC1(C(=O)N[C@@H](CCO)c2ccc(Cl)cc2)CCN(c2ncnc3[nH]ccc23)CC1` [Capivasertib] + CCN(CCO)CCCOc1ccc2c(Nc3cc(CC(=O)Nc4cccc(F)c4)[nH]n3)ncnc2c1 [AZD2811] (first compound max 10 µM, 7x7, partner max 1 µM), the Bliss excess [1] was -0.0009, the Bliss excess [2] was -0.0125 and the Bliss excess [3] was -0.0021. For the same compound, the Bliss excess [4] was 0.016, the Bliss excess (IST-MES1 (Mesothelioma)) was -0.0427 and the Bliss excess (LN-229 (Glioblastoma)) was -0.0413. The Bliss excess [5] was -0.0112, the Bliss excess [6] was 0.0383 and the Bliss excess [7] was 0.0232. It also gave a Bliss excess [8] of 0.0242, a Bliss excess [9] of -0.0168 and a Bliss excess [10] of 0.0291. The Bliss excess [11] was 0.0027, the Bliss excess [12] was -0.0385 and the Bliss excess [13] was -0.0068. The Bliss excess [14] was -0.0168, the Bliss excess [15] was -0.0426 and the Bliss excess [16] was 0.0188. The Bliss excess [17] was -0.0208 and the Bliss excess [18] was -0.017.

Work on `CN(CCO)CC[C@H](CSc1ccccc1)Nc1ccc(S(=O)(=O)NC(=O)c2ccc(N3CCC([C@@H](O)c4ccccc4-c4ccc(Cl)cc4)CC3)cc2)cc1S(=O)(=O)C(F)(F)F` [AZD4320] + C1CN(CCC1(C(=O)N[C@@H](CCO)C2=CC=C(C=C2)Cl)N)C3=NC=NC4=C3C=CN4 [Capivasertib] (first compound max 1 µM, 7x7, partner max 3 µM) yielded a Bliss excess [1] of -0.0411, a Bliss excess [2] of -0.0268 and a Bliss excess [3] of -0.0435. The Bliss excess [4] was -0.0759, the Bliss excess (IST-MES1 (Mesothelioma)) was -0.0371 and the Bliss excess (LN-229 (Glioblastoma)) was -0.0443. For the same compound, the Bliss excess [5] was 0.0092, the Bliss excess [6] was -0.0977 and the Bliss excess [7] was -0.0273. It also gave a Bliss excess [8] of -0.0259, a Bliss excess [9] of 0.0316 and a Bliss excess [10] of -0.0274. The Bliss excess [11] was -0.0088, the Bliss excess [12] was -0.0691 and the Bliss excess [13] was -0.0481. It also gave a Bliss excess [14] of -0.0961, a Bliss excess [15] of -0.0768 and a Bliss excess [16] of 0.0036. The Bliss excess [17] was 0.0185 and the Bliss excess [18] was -0.0588.

Compound `C[C@@H](c1ccc2nccn2c1)n1nnc2ncc(-c3cnn(C)c3)nc21` [Savolitinib] + Cc1c2c(nn1C)CSCc1cc(n(C)n1)CSc1cc(c3ccccc3c1)OCCCc1c(C(=O)O)n(C)c3c-2c(Cl)ccc13 [AZD5991] (first compound max 1 µM, 7x7, partner max 1 µM) has a Bliss excess [1] of -0.0291, a Bliss excess [2] of -0.0687 and a Bliss excess [3] of 0.0013. The Bliss excess [4] was -0.0541, the Bliss excess (IST-MES1 (Mesothelioma)) was -0.0435 and the Bliss excess (LN-229 (Glioblastoma)) was -0.0372. It also gave a Bliss excess [5] of -0.052, a Bliss excess [6] of -0.0133 and a Bliss excess [7] of -0.0163. It also gave a Bliss excess [8] of 0.0288, a Bliss excess [9] of 0.0471 and a Bliss excess [10] of -0.0474. The Bliss excess [11] was -0.0413, the Bliss excess [12] was -0.0415 and the Bliss excess [13] was -0.0541. It also gave a Bliss excess [14] of -0.0216, a Bliss excess [15] of -0.0451 and a Bliss excess [16] of -0.0141. It also gave a Bliss excess [17] of -0.0662 and a Bliss excess [18] of -0.0656.
